# Measurements published in US11207320B2, “Compositions and methods for cancer expressing PDE3A or SLFN12” (The Broad Institute, Inc., priority 2015, dated 2021).
# Experiments:
# HeLa cells = test: Compound sensitivity testing in cell lines (48 h viability); format: cell-based
# Method: 1500 NCI-H1734 or 1000 A549 cells were plated in a 384-well plate in 40 μl of RPMI supplemented with 10% Fetal Bovine Serum and 1% Pen/Strep. 24 hours after plating, a compound-library of 1924 small molecules was added at a concentration of 10 μM. Staurosporine was used a positive control for cytotoxicity at a concentration of 10 μM, and DMSO was used a negative control at a concentration of 1%. All compounds were incubated for 48 hours with indicated small molecules. After 48 hours, 384-well plates were removed from the incubator and allowed to cool to room temperature for 20 minutes. Cell viability was assessed by adding 40 μl of a 25% CELLTITERGLO® (Promega) in PBS with a THERMO COMBI™ or multichannel-pipette and incubated for 10 minutes. The luminescence signal was read using a Perkin-Elmer EnVision. Viability percentage was calculated by normalizing to DMSO controls.
# 1000 HeLa (DMEM), 1000 A549 (RPMI), 500 MCF-7 (DMEM), 4000 PC3 (F12-K), 1000 NCI-H2122 (RPMI) or 1500 NCI-H1563 (RPMI) cells were plated in a 384-well plate in 40 μl of corresponding growth media supplemented with 10% Fetal Bovine Serum. 24 hours after plating, indicated compounds were added at indicated concentrations and incubated for 48 hours. Cell viability was assessed as described in Compound library screening in NCI-H1734 and A549 cell lines.
# PDE3A = PDE3A (Homo sapiens, UniProt Q14432); test: Immunoprecipitation of PDE3A in HeLa cells with iTRAQ/MS proteomics; design: Immunoprecipitation of endogenous PDE3A in HeLa cells; endogenous in cells; host or cells: HeLa; conditions: 10 μM, four hours
# Source text: The dependence of 6-(4-(diethylamino)-3-nitrophenyl)-5-methyl-4,5-dihydropyridazin-3(2H)-one (DNMDP) cytotoxicity on phosphodiesterase 3A (PDE3A) protein abundance indicated a possible mechanism similar to that recently observed for lenalidomide, which acts by a neomorphic or hypermorphic mechanism by stabilizing an interaction between cereblon and IKAROS Family Zinc Finger 1 (IKZF1) and IKZF3 (Krönke et al., Science 343, 301-305, 2014; Lu et al., Science 343, 305-309, 2014). […] The protein complexes in which PDE3A resides were characterized under normal conditions, and it was examined how these complexes change when PDE3A is bound to DNMDP or the non-cytotoxic PDE3 inhibitor trequinsin. PDE3A and interacting proteins from Hela cells were immunoprecipitated in the presence of DNMDP and trequinsin followed by labeling with isobaric stable isotope tags for relative abundance and quantitation by mass spectrometry (iTRAQ/MS, FIG. 13A). […]
# Desalted peptides were labeled with isobaric tags for relative and absolute quantification (iTRAQ)-reagents according to the manufacturer's instructions (AB Sciex, Foster City, Calif.). […]
# Reconstituted peptides were separated on an online nanoflow EASY-NLC™ 1000 UHPLC system (Thermo Fisher Scientific) and analyzed on a benchtop Orbitrap Q EXACTIVE™ mass spectrometer (Thermo Fisher Scientific). […]
# PDE3A(677-1141) = target: T1, PDE3A(677-1141) (Homo sapiens, UniProt Q14432); test: Differential scanning fluorimetry (DSF) binding; conditions: 5 μM protein, 100 μM compound
# T1 construct: purified PDE3A catalytic domain, PDE3A(677-1141)
# Method: Binding buffer: 20 mM Hepes pH 7.4, 100 μM TCEP, 1 mM MgCl2, 150 mM NaCl.
# T1 sequence (Q14432 677-1141): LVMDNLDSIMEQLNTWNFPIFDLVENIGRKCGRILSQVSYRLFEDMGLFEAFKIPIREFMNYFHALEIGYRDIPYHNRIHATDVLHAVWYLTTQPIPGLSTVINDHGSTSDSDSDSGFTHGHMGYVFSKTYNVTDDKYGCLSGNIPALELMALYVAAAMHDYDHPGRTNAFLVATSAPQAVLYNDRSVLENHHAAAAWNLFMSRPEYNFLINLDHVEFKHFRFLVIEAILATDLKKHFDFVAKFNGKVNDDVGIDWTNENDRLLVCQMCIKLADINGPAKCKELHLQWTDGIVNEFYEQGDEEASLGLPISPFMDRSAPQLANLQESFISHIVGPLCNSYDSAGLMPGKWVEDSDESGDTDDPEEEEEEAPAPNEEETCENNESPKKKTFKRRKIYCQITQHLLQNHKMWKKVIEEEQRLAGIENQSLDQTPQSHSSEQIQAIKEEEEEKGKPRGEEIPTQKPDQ
# Sequence of PDE3A (Q14432 whole entry): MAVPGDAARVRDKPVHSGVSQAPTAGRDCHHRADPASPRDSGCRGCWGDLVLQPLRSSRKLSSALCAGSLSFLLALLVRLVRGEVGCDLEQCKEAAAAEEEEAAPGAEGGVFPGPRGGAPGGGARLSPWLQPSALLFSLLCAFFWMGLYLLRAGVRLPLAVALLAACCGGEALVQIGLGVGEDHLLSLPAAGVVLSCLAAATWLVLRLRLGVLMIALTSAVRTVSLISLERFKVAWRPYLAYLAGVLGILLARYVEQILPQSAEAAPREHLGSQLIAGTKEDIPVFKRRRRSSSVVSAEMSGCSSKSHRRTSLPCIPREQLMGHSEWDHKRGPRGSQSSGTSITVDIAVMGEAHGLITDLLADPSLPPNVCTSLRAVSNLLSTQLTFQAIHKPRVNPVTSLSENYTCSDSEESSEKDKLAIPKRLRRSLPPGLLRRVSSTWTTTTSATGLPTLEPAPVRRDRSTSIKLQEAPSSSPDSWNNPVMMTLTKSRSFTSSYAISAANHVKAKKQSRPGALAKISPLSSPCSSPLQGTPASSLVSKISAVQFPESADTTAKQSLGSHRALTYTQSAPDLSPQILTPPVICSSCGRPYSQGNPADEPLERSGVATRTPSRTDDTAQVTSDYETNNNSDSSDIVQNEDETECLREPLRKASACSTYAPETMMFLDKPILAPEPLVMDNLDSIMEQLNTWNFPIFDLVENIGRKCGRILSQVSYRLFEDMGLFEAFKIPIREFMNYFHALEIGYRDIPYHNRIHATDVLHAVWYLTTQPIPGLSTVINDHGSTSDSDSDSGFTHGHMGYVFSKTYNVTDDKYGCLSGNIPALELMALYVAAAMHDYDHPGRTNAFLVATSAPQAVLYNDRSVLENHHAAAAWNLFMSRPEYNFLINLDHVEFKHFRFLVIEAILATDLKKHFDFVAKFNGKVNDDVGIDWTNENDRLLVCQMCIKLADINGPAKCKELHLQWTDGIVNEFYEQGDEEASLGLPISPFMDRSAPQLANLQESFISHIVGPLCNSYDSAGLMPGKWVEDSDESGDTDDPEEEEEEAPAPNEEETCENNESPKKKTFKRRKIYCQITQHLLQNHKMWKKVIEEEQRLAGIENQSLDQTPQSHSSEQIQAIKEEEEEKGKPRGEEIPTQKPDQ
Compound,effect on HeLa cell viability / cytotoxicity (HeLa cells; HeLa),enrichment of SIRT7 and SLFN12 in PDE3A immunoprecipitates (PDE3A),Tm (° C.) (PDE3A(677-1141)) [°C],ΔTm at 100 µM (PDE3A(677-1141)) [°C],EC70 (HeLa cells; HeLa) [nM],"EC50 (HeLa cells; Homo sapiens, HeLa cervical carcinoma cells) [nM]"
"COc1cc2c(cc1OC)-c1c/c(=N\c3c(C)cc(C)cc3C)n(C)c(=O)n1CC2 [trequinsin, 9,10-dimethoxy-3-methyl-2-(2,4,6-trimethylphenyl)imino-6,7-dihydropyrimido[6,1-a]isoquinolin-4-one]",did not affect HeLa cell viability in any detectable way,not observed,66.2 ± 0.0,14.2,,
"CCN(CC)c1ccc(C2=NNC(=O)CC2C)cc1[N+](=O)[O-] (stereo not drawn) [DNMDP, 6-(4-(diethylamino)-3-nitrophenyl)-5-methyl-4,5-dihydropyridazin-3(2H)-one]",,specifically enriched,58.4 ± 0.0,6,30,10 to 100
